Source: US10681908B2, “Molecules having pesticidal utility, and intermediates, compositions, and processes, related thereto” (Dow AgroSciences LLC, priority 2016, dated 2020)

Assays:
Type in all cases: in vivo
[1] = test system: Cabbage Looper (Trichoplusia ni, TRIPNI); assay: Bioassay on Cabbage Looper (CL), 128-well diet tray assay; settings: 168 h, 50 μg/cm^2 on artificial diet, second instar larvae, five to seven days, 25° C., read-out: CL % Control (or Mortality) rating
In short: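 Diet-tray assay: 1–5 second-instar larvae per well on artificial diet surface-treated with 50 μg/cm^2 compound (90:10 acetone-water, dried), eight wells per compound. Held at 25° C., 14:10 light-dark for five to seven days; percent mortality per well averaged across the eight wells.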

[2] = test system: Yellow Fever Mosquito (Aedes aegypti, AEDSAE); settings: about 1 day-old larvae, 3 days, room temperature, scored on mortality
In short: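 Compounds from DMSO master plates (4000 ppm stock) diluted with 90:10 water:acetone, then about 1-day-old larvae in liver-powder water added. Held covered at room temperature for 3 days; each well scored for mortality.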

[3] = test system: Beet Armyworm (Spodoptera exigua, LAPHEG); assay: Bioassay on Beet Armyworm (BAW), 128-well diet tray assay; settings: 168 h, 50 μg/cm^2 on artificial diet, second instar larvae, five to seven days, 25° C., read-out: BAW % Control (or Mortality) rating
In short: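 Artificial diet was surface-treated with 50 μg/cm^2 of compound in 90:10 acetone-water and dried; one to five second-instar larvae were placed per well, eight wells per treatment. Held at 25 °C, 14:10 light-dark, for five to seven days, then percent mortality per well was averaged.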

In the case of C[C@H](C[S+]([O-])CCC(F)(F)F)NC(=O)c1ccc(/C(F)=C/C(c2cc(Cl)c(Cl)c(Cl)c2)C(F)(F)F)cc1C(F)(F)F (stereo partly drawn) [F121, 4-((Z)-1,4,4,4-Tetrafluoro-3-(3,4,5-trichlorophenyl)but-1-en-1-yl)-2-(trifluoromethyl)-N-((2R)-1-((3,3,3-trifluoropropyl)sulfinyl)propan-2-yl)benzamide], the mortality at 50 µg/cm2 [1] is reported as 50 to 100%, the “YFM % Control (or Mortality) rating” value [2] is reported as “A (80-100)” and the mortality at 50 µg/cm2 [3] is reported as 50 to 100%.

With C[C@H](CS(=O)(=O)CC(F)(F)F)NC(=O)c1ccc(/C(F)=C/C(c2cc(Cl)c(Cl)c(Cl)c2)C(F)(F)F)c2ccccc12 (stereo partly drawn) [PF1, 4-((Z)-1,4,4,4-Tetrafluoro-3-(3,4,5-trichlorophenyl)but-1-en-1-yl)-N—((R)-1-((2,2,2-trifluoroethyl)sulfonyl)propan-2-yl)-1-naphthamide] the mortality at 50 µg/cm2 [1] was 50 to 100%, the “YFM % Control (or Mortality) rating” value [2] was “A (80-100)” and the mortality at 50 µg/cm2 [3] was 50 to 100%.

With CCS(=O)(=O)C[C@@H](C)NC(=O)c1ccc(/C(F)=C/C(c2cc(Cl)cc(Cl)c2)C(F)(F)F)cc1C(F)(F)F (stereo partly drawn) [F45, 4-((Z)-3-(3,5-Dichlorophenyl)-1,4,4,4-tetrafluorobut-1-en-1-yl)-N—((R)-1-(ethylsulfonyl)propan-2-yl)-2-(trifluoromethyl)benzamide] the mortality at 50 µg/cm2 [1] was 50 to 100%, the “YFM % Control (or Mortality) rating” value [2] was “A (80-100)” and the mortality at 50 µg/cm2 [3] was 50 to 100%.

With Cc1cc(C(/C=C(\F)c2ccc(C(=O)N[C@H](C)CS(=O)(=O)CC(F)(F)F)c(C(F)(F)F)c2)C(F)(F)F)cc(Cl)c1Cl (stereo partly drawn) [F78, 4-((Z)-3-(3,4-Dichloro-5-methylphenyl)-1,4,4,4-tetrafluorobut-1-en-1-yl)-N—((R)-1-((2,2,2-trifluoroethyl)sulfonyl)propan-2-yl)-2-(trifluoromethyl)benzamide] the mortality at 50 µg/cm2 [1] was 50 to 100%, the “YFM % Control (or Mortality) rating” value [2] was “B (More than 0-Less than 80)” and the mortality at 50 µg/cm2 [3] was 50 to 100%.

With C[C@H](CS(=O)(=O)CC(F)(F)F)NC(=O)c1ccc(/C(F)=C/C(c2ccc(Cl)c(Cl)c2)C(F)(F)F)cc1C(F)(F)F (stereo partly drawn) [F18, 4-((Z)-3-(3,4-Dichlorophenyl)-1,4,4,4-tetrafluorobut-1-en-1-yl)-N—((R)-1-((2,2,2-trifluoroethyl)sulfonyl)propan-2-yl)-2-(trifluoromethyl)benzamide] the mortality at 50 µg/cm2 [1] was 50 to 100%, the “YFM % Control (or Mortality) rating” value [2] was “A (80-100)” and the mortality at 50 µg/cm2 [3] was 50 to 100%.

With O=C(NCCS(=O)(=O)CC(F)(F)F)c1ccc(/C(F)=C/C(c2cc(Cl)c(Cl)c(Cl)c2)C(F)(F)F)cc1C(F)(F)F (stereo not drawn) [F49, (Z)-4-(1,4,4,4-tetrafluoro-3-(3,4,5-trichlorophenyl)but-1-en-1-yl)-N-(2-((2,2,2-trifluoroethyl)sulfonyl)ethyl)-2-(trifluoromethyl)benzamide] the mortality at 50 µg/cm2 [1] was 50 to 100%, the “YFM % Control (or Mortality) rating” value [2] was “A (80-100)” and the mortality at 50 µg/cm2 [3] was 50 to 100%.

In the case of C[C@H](CS(=O)(=O)CC(F)(F)F)NC(=O)c1ccc(/C(F)=C/C(c2ccc(Br)c(Br)c2)C(F)(F)F)cc1C(F)(F)F (stereo partly drawn) [F54, 4-((Z)-3-(3,4-Dibromophenyl)-1,4,4,4-tetrafluorobut-1-en-1-yl)-N—((R)-1-((2,2,2-trifluoroethyl)sulfonyl)propan-2-yl)-2-(trifluoromethyl)benzamide], the mortality at 50 µg/cm2 [1] is reported as 50 to 100%, the “YFM % Control (or Mortality) rating” value [2] is reported as “A (80-100)” and the mortality at 50 µg/cm2 [3] is reported as 50 to 100%.

With CCc1ccc(C(/C=C(\F)c2ccc(C(=O)N[C@H](C)CS(=O)(=O)CC(F)(F)F)c(C(F)(F)F)c2)C(F)(F)F)cc1Cl (stereo partly drawn) [F141, 4-((Z)-3-(3-Chloro-4-ethylphenyl)-1,4,4,4-tetrafluorobut-1-en-1-yl)-N—((R)-1-((2,2,2-trifluoroethyl)sulfonyl)propan-2-yl)-2-(trifluoromethyl)benzamide] the mortality at 50 µg/cm2 [1] was 50 to 100%, the “YFM % Control (or Mortality) rating” value [2] was “D (No activity noticed in this bioassay)” and the mortality at 50 µg/cm2 [3] was 50 to 100%.

For C[C@H](CS(=O)(=O)CCC(F)(F)F)NC(=O)c1ccc(/C(F)=C/C(c2cc(Cl)c(Cl)c(Cl)c2)C(F)(F)F)cc1C(F)(F)F (stereo partly drawn) [F130, 4-((Z)-1,4,4,4-tetrafluoro-3-(3,4,5-trichlorophenyl)but-1-en-1-yl)-2-(trifluoromethyl)-N—((R)-1-((3,3,3-trifluoropropyl)sulfonyl)propan-2-yl)benzamide], the mortality at 50 µg/cm2 [1] was 50 to 100%, the “YFM % Control (or Mortality) rating” value [2] was “B (More than 0-Less than 80)” and the mortality at 50 µg/cm2 [3] was 50 to 100%.

With CCS(=O)(=O)C[C@@H](C)NC(=O)c1ccc(/C(F)=C/C(c2cc(Br)c(Cl)c(Br)c2)C(F)(F)F)cc1C(F)(F)F (stereo partly drawn) [F55, 4-((Z)-3-(3,5-Dibromo-4-chlorophenyl)-1,4,4,4-tetrafluorobut-1-en-1-yl)-N—((R)-1-(ethylsulfonyl)propan-2-yl)-2-(trifluoromethyl)benzamide] the mortality at 50 µg/cm2 [1] was 50 to 100%, the “YFM % Control (or Mortality) rating” value [2] was “A (80-100)” and the mortality at 50 µg/cm2 [3] was 50 to 100%.

With C[C@H](CS(=O)(=O)CC(F)(F)F)NC(=O)c1ccc(/C(F)=C/C(c2cc(F)c(F)c(Cl)c2)C(F)(F)F)cc1C(F)(F)F (stereo partly drawn) [F103, 4-((Z)-3-(3-Chloro-4,5-difluorophenyl)-1,4,4,4-tetrafluorobut-1-en-1-yl)-N—((R)-1-((2,2,2-trifluoroethyl)sulfonyl)propan-2-yl)-2-(trifluoromethyl)benzamide] the mortality at 50 µg/cm2 [1] was 50 to 100%, the “YFM % Control (or Mortality) rating” value [2] was “A (80-100)” and the mortality at 50 µg/cm2 [3] was 50 to 100%.

C=Cc1c(Cl)cc(C(/C=C(\F)c2ccc(C(=O)N[C@H](C)CS(=O)(=O)CC(F)(F)F)c(C(F)(F)F)c2)C(F)(F)F)cc1Cl (stereo partly drawn) [F33, 4-((Z)-3-(3,5-Dichloro-4-vinylphenyl)-1,4,4,4-tetrafluorobut-1-en-1-yl)-N—((R)-1-((2,2,2-trifluoroethyl)sulfonyl)propan-2-yl)-2-(trifluoromethyl)benzamide] was tested, and the mortality at 50 µg/cm2 [1] was 50 to 100%, the “YFM % Control (or Mortality) rating” value [2] was “A (80-100)” and the mortality at 50 µg/cm2 [3] was 50 to 100%.

In the case of C[C@H](C[S+]([O-])CC(F)(F)F)NC(=O)c1ccc(/C(F)=C/C(c2cc(Cl)c(F)c(Cl)c2)C(F)(F)F)cc1C(F)(F)F (stereo partly drawn) [F37, 4-((Z)-3-(3,5-Dichloro-4-fluorophenyl)-1,4,4,4-tetrafluorobut-1-en-1-yl)-N-((2R)-1-((2,2,2-trifluoroethyl)sulfinyl)propan-2-yl)-2-(trifluoromethyl)benzamide], the mortality at 50 µg/cm2 [1] is reported as 50 to 100%, the “YFM % Control (or Mortality) rating” value [2] is reported as “A (80-100)” and the mortality at 50 µg/cm2 [3] is reported as 50 to 100%.

For C[C@H](CS(=O)(=O)CC(F)(F)F)NC(=O)c1ccc(/C(F)=C/C(c2cc(Cl)c(Cl)c(Cl)c2)C(F)F)cc1C(F)(F)F (stereo partly drawn) [F98, 4-((Z)-1,4,4-Trifluoro-3-(3,4,5-trichlorophenyl)but-1-en-1-yl)-N—((R)-1-((2,2,2-trifluoroethyl)sulfonyl)propan-2-yl)-2-(trifluoromethyl)benzamide], the mortality at 50 µg/cm2 [1] was 50 to 100%, the “YFM % Control (or Mortality) rating” value [2] was “A (80-100)” and the mortality at 50 µg/cm2 [3] was 50 to 100%.

In the case of C[C@H](C[S+]([O-])CC(F)(F)F)NC(=O)c1ccc(/C(F)=C/C(c2cc(Br)c(Cl)c(Br)c2)C(F)(F)F)cc1C(F)(F)F (stereo partly drawn) [F23, 4-((Z)-3-(3,5-Dibromo-4-chlorophenyl)-1,4,4,4-tetrafluorobut-1-en-1-yl)-N-((2R)-1-((2,2,2-trifluoroethyl)sulfinyl)propan-2-yl)-2-(trifluoromethyl)benzamide], the mortality at 50 µg/cm2 [1] is reported as 50 to 100%, the “YFM % Control (or Mortality) rating” value [2] is reported as “A (80-100)” and the mortality at 50 µg/cm2 [3] is reported as 50 to 100%.

With C[C@H](C[S+]([O-])CC(F)(F)F)NC(=O)c1ccc(/C(F)=C/C(c2ccc(Cl)c(Cl)c2)C(F)(F)F)cc1C(F)(F)F (stereo partly drawn) [F28, 4-((Z)-3-(3,4-Dichlorophenyl)-1,4,4,4-tetrafluorobut-1-en-1-yl)-N-((2R)-1-((2,2,2-trifluoroethyl)sulfinyl)propan-2-yl)-2-(trifluoromethyl)benzamide] the mortality at 50 µg/cm2 [1] was 50 to 100%, the “YFM % Control (or Mortality) rating” value [2] was “B (More than 0-Less than 80)” and the mortality at 50 µg/cm2 [3] was 50 to 100%.

For C[C@H](C[S+]([O-])CCF)NC(=O)c1ccc(/C(F)=C/C(c2cc(Cl)c(Cl)c(Cl)c2)C(F)(F)F)cc1C(F)(F)F (stereo partly drawn) [F99, N-((2R)-1-((2-Fluoroethyl)sulfinyl)propan-2-yl)-4-((Z)-1,4,4,4-tetrafluoro-3-(3,4,5-trichlorophenyl)but-1-en-1-yl)-2-(trifluoromethyl)benzamide], the mortality at 50 µg/cm2 [1] was 50 to 100%, the “YFM % Control (or Mortality) rating” value [2] was “A (80-100)” and the mortality at 50 µg/cm2 [3] was 50 to 100%.

With C[C@H](CS(=O)(=O)CC(F)(F)F)NC(=O)c1ccc(/C(F)=C/C(c2cc(Cl)c(Br)c(Cl)c2)C(F)(F)F)cc1C(F)(F)F (stereo partly drawn) [F25, 4-((Z)-3-(4-Bromo-3,5-dichlorophenyl)-1,4,4,4-tetrafluorobut-1-en-1-yl)-N—((R)-1-((2,2,2-trifluoroethyl)sulfonyl)propan-2-yl)-2-(trifluoromethyl)benzamide] the mortality at 50 µg/cm2 [1] was 50 to 100%, the “YFM % Control (or Mortality) rating” value [2] was “A (80-100)” and the mortality at 50 µg/cm2 [3] was 50 to 100%.
